Values after ≈ are worked out from the molar mass of the structure shown. Read-outs that look alike come from different tables or passages of the source.
How the values were obtained:
[1] = High-throughput (HT) solubility determination; format: physicochemical; details: kinetic from dmso stock
Method: The chromatographic system consists of an Agilent 1290 UPLC/DAD system and ChemStation software, both from Agilent Technologies, USA. The separations are carried out on a Supelco Ascentis Express C18, 30 mm×3.0 mm I.D., 2.7 μm HPLC column. The mobile phase consists of Potassium phosphate buffered at pH 7 (mobile phase A) and acetonitrile (mobile phase B). The column oven temperature is set to 30° C. and the UPLC analysis consists of a gradient. The injection volume is 2 μL and the spectrophotometric detection is set to 215 and 238 nm.
A 10 mM stock solution of the compound in DMSO is supplied for analysis. 2.5 μL of stock solution (10 mM) was diluted into 247.5 μL of organic co-solvents (10% MeCN/80% MeOH/10% DMSO, v/v/v) to create a standard solution of 100 μM. To create the solubility solutions, 4.1 μL of 10 mM DMSO stock solution was diluted into […] of phosphate buffered saline (PBS) (pH 7) solution. A second 4.1 μL aliquot of 10 mM DMSO stock solution was added to 196 μL of PBS (pH 2) solution. A third 4.1 uL aliquot of 10 mM DMSO stock solution was added to 196 uL of FaSSIF (pH 6.5) solution. […] The equilibrated solubility solutions were filtered by centrifugation using a filter (0.45 μm, polypropylene). 50 μL each of the 100 μM standard solution and the filtered equilibrated solubility solutions were placed into a 384 well plate, and the plate was subsequently heat sealed.
Each standard and solubility solution was analyzed by UPLC/DAD. The solubility value was calculated by the following equation: Solubility=(Peak area of sample/Peak area of standard) (Standard concentration)

human Factor XIa = human Factor XIa (Homo sapiens, UniProt P03951); test: Factor XIa assay; format: biochemical; details: human Factor XIa 0.04 nM, GPR-AFC substrate, 25° C., pH 7.4; read-out: FXIa IC50
Method: (§1) The effectiveness of a compound of the present invention as an inhibitor of Coagulation Factor XIa can be determined using a relevant purified serine protease, and an appropriate synthetic substrate. The rate of hydrolysis of the chromogenic or fluorogenic substrate by the relevant serine protease was measured both in the absence and presence of compounds of the present invention. Assays were conducted at room temperature or at 37° C. […] A decrease in the rate of fluorescence change in the presence of inhibitor is indicative of enzyme inhibition. Such methods are known to one skilled in the art. The results of this assay are expressed as the half-maximal inhibitory concentrations (IC50), or the inhibitory constant, Ki.
Compounds were pre-incubated for 30 minutes at 25° C. with human (0.04 nM) Factor XIa in 50 mM HEPES buffer with 150 mM sodium chloride, 5 mM calcium chloride, 0.1% PEG 8000, pH 7.4. Factor XIa enzymatic activity was determined by addition of the substrate glycine-proline-arginine-7-amido-4-trifluoromethylcoumarin (GPR-AFC) and measurement of the fluorescence at 400/505 nm after a 60 minute incubation at 25° C. The % inhibition for each data point was calculated from the data and analyzed using the log (inhibitor) vs. response four parameters equation to determine the half-maximal inhibitory concentrations (IC50). The IC50 were converted to equilibrium inhibitory constants (Ki) using the Cheng-Prusoff equation.

Human plasma kallikrein = target: T1, Human plasma kallikrein (Homo sapiens, UniProt P03952); test: Kallikrein assay (plasma kallikrein); format: biochemical; details: purified Human plasma kallikrein 0.5 nM, Acetyl-K-P-R-AFC substrate, pH 7.4; read-out: pKal IC50
T1 construct: yields a heavy chain (371 amino acids) and a light chain (248 amino acids); purchased Enzyme Research Laboratories
Method: as §1, with “Kallikrein” for “Coagulation Factor XIa”, “constant.” for “constant,”
Kallikrein determinations were made in 50 mM HEPES buffer at pH 7.4 containing 150 mM NaCl, 5 mM CaCl2, and 0.1% PEG 8000 (polyethylene glycol; Fisher Scientific). Determinations were made using purified Human plasma kallikrein at a final concentration of 0.5 nM (Enzyme Research Laboratories) and the synthetic substrate. Acetyl-K-P-R-AFC (Sigma # C6608) at a concentration of […].
Activity assays were performed by diluting a stock solution of substrate at least tenfold to a final concentration≤ 0.2 Km into a solution containing enzyme or enzyme equilibrated with inhibitor. Times required to achieve equilibration between enzyme and inhibitor were determined in control experiments. The reactions were performed under linear progress curve conditions and fluorescence increase measured at 405 Ex/510 Em nm. Values were converted to percent inhibition of the control reaction (after subtracting 100% Inhibition value). IC50 was determined by inflection point from a four parameter logistic curve fit. Ki was calculated using the Cheng Prusoff equation. Ki=IC50/(1+([S]/Km)).

[2] = FaSSIF pH 6.5, shaken 24 hours at 25° C., read-out: pH 6.5 (FaSSIF) solubility
[3] = phosphate buffered saline (PBS) pH 2, aqueous buffer, PBS pH 2, shaken 24 hours at 25° C., read-out: pH 2 solubility

human Factor XIa, sequence (P03951 388-625 limits assumed): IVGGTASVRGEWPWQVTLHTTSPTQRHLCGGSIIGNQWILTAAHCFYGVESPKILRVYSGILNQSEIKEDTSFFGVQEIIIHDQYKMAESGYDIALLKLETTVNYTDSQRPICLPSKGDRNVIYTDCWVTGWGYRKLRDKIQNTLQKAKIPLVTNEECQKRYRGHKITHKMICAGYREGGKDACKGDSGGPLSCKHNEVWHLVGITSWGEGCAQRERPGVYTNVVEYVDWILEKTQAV
human Factor XIa, sequence (P03951 19-387 partner limits assumed): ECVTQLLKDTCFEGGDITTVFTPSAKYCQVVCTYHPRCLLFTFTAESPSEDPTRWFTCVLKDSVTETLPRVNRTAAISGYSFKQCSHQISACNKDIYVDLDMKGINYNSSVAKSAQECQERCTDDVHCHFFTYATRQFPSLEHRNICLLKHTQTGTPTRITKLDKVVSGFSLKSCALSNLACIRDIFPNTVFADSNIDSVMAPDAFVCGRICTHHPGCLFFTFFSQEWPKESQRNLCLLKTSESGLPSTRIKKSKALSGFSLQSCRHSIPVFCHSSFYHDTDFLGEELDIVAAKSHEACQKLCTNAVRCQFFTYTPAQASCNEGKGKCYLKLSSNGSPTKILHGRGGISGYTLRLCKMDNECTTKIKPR
T1 sequence (P03952 391-638 limits assumed): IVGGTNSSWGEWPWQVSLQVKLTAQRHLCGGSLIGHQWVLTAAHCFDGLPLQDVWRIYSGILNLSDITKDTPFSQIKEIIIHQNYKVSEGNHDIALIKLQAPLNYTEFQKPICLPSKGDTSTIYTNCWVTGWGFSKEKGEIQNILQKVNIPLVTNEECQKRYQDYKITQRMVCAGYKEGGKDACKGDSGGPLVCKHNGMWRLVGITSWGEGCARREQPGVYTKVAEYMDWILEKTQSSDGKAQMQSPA
T1 sequence (P03952 20-390 partner limits assumed): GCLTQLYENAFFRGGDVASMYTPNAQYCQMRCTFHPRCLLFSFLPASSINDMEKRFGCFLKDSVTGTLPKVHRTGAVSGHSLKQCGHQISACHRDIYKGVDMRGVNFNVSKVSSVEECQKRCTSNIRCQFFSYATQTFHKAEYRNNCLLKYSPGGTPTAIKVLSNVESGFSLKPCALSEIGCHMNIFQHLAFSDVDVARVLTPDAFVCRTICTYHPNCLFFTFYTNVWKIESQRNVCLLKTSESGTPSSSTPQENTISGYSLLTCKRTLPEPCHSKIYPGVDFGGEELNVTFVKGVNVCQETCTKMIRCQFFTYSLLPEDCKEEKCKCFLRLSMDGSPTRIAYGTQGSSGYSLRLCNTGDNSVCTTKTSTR

| Structure (SMILES) | solubility kinetic at 24 h [1, 2] [µM] | solubility kinetic at 24 h [1, 3] [µM] | IC50 (human Factor XIa) [nM] | IC50 (Human plasma kallikrein) [nM] |
| --- | --- | --- | --- | --- |
| COC(=O)Nc1ccc2c(c1)NC(=O)C(C)(C)CCC[C@H](c1ccc(-c3cccc(Cl)c3F)c[n+]1[O-])c1nc-2c(C(=O)O)[nH]1 [Example 9, (R,Z)-2-(1^5-carboxy-2^4-((methoxycarbonyl)amino)-5,5-dimethyl-4-oxo-1^1H-3-aza-1(4,2)-imidazola-2(1,2)-benzenacyclononaphane-9-yl)-5-(3-chloro-2-fluorophenyl)pyridine 1-oxide] | 138 (≈ 85.8 µg/mL) | 125 (≈ 77.8 µg/mL) | 0.25 | 1.1 |
| COC(=O)Nc1ccc2c(c1)NC(=O)C(C)(C)CCC[C@H](c1ccc(-c3cc(F)ccc3OC(F)F)c[n+]1[O-])c1nc-2c(C(=O)O)[nH]1.N (single isomer, unassigned) [Example 7] | 170 | 145 | 0.16 | 4.4 |
| COC(=O)Nc1ccc2c(c1)NC(=O)C(C)(C)CCC[C@H](c1ccc(-c3cc(F)ccc3-n3cc(C(F)(F)F)cn3)c[n+]1[O-])c1nc-2c(C(=O)O)[nH]1 [Example 8, (R,Z)-2-(1^5-carboxy-2^4-((methoxycarbonyl)amino)-5,5-dimethyl-4-oxo-1^1H-3-aza-1(4,2)-imidazola-2(1,2)-benzenacyclononaphane-9-yl)-5-(5-fluoro-2-(4-(trifluoromethyl)-1H -pyrazol-1-yl)phenyl)pyridine 1-oxide] | 141 (≈ 102 µg/mL) | 154 (≈ 111 µg/mL) | 0.39 | 544 |
